For 22 compounds, CC50 and EC50 results are on record in patent publication US20230107941A1, “HEPATITIS B CAPSID ASSEMBLY MODULATORS” (Venatorx Pharmaceuticals, Inc., priority 2019, published 2023).

What is called CC50 is the concentration that lowers cell viability or growth by half. Usually EC50 stands for the concentration needed to bring the measured effect to its halfway point.

Series [1] in a line: In vitro cytotoxicity assay (MTT cell viability) in HepG2 cells. It counts as cell-based, human. To be noted: human. The gist of the method: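 CC50 was derived by 4-parameter fit of viability relative to vehicle controls, measured as MTT formazan absorbance at 492 nm after 3–4 h of reagent and DMSO solubilization. Before that, HepG2 cells seeded overnight at 20,000/well were incubated 7 days at 37°C with compound from 30 μM down to 1.0 nM in half-log steps.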

A further series has as its system HBV. Nature of the series: In vitro antiviral assay: anti-HBV replication in HepAD38 cells (extracellular HBV DNA by QPCR). The format is cell-based, hepatitis B virus (genotype D, serotype ayw). To be noted: Hepatitis B virus, HePAD38, 168 h, 7 days incubation, extracellular HBV DNA by QPCR, read-out: Anti-HBV EC50. A digest of the protocol: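 Read-out is extracellular HBV DNA (copies/mL, QPCR standard curve) after 7-day exposure of tet-free HepAD38 cells to 10-fold dilutions from 1 μM down to 10 pM. Values normalised to DMSO vehicle; EC50 from 4-parameter nonlinear regression, with entecavir validating each run.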

Molecules are shown by their SMILES.

On to `Cc1cc(NC(=O)c2c(C3CC3)c(C(=O)C(=O)N[C@H](C)C(F)(F)F)n(C)c2C)ccc1F` [Example 101, (R)-4-cyclopropyl-N-(4-fluoro-3-methylphenyl)-1,2-dimethyl-5-(2-oxo-2-((1,1,1-trifluoropropan-2-yl)amino)acetyl)-1H-pyrrole-3-carboxamide], for which the CC50 at 7 days in series [1] is > 30 µM. Further, in the series with HBV, the EC50 was < 50 nM.

Turning to `Cc1cc(NC(=O)c2c(C3CC3)c(C(=O)C(=O)N[C@]3(C)CC[C@@H](O)CC3)n(C)c2C)ccc1F` [Example 102, 4-cyclopropyl-N-(4-fluoro-3-methylphenyl)-5-(2-(((1r,4r)-4-hydroxy-1-methylcyclohexyl)amino)-2-oxoacetyl)-1,2-dimethyl-1H-pyrrole-3-carboxamide], the CC50 at 7 days in series [1] is > 30 µM. The EC50 in the series on HBV is < 50 nM.

Regarding `Cc1cc(NC(=O)c2c(C3CC3)c(C(=O)C(=O)NC3CCN(c4cccnn4)CC3)n(C)c2C)ccc1F` [Example 103, 4-cyclopropyl-N-(4-fluoro-3-methylphenyl)-1,2-dimethyl-5-(2-oxo-2-((1-(pyridazin-3-yl)piperidin-4-yl)amino)acetyl)-1H-pyrrole-3-carboxamide], the CC50 at 7 days in series [1] is > 30 µM. In addition, the EC50 in the series on HBV was in the range of 500 to 1000 nM.

Take `CCc1c(C(=O)Nc2ccc(F)c(C)c2)c(C)c(C(=O)C(=O)N[C@]2(C)C[C@H](O)C2)n1C` [Example 104, 2-ethyl-N-(4-fluoro-3-methylphenyl)-5-(2-(((1s,3s)-3-hydroxy-1-methylcyclobutyl)amino)-2-oxoacetyl)-1,4-dimethyl-1H-pyrrole-3-carboxamide]: the CC50 at 7 days in series [1] was > 30 µM. Further, the EC50 in the series on HBV was < 50 nM.

Take `CCc1c(C(=O)Nc2ccc(F)c(C)c2)c(C)c(C(=O)C(=O)NCC(C)(C)O)n1C` [Example 105, 2-ethyl-N-(4-fluoro-3-methylphenyl)-5-(2-((2-hydroxy-2-methylpropyl)amino)-2-oxoacetyl)-1,4-dimethyl-1H-pyrrole-3-carboxamide]: the CC50 at 7 days in series [1] was > 30 µM. Moreover, the EC50 in the series with HBV is < 50 nM.

As for `CCc1c(C(=O)Nc2ccc(F)c(C)c2)c(C)c(C(=O)C(=O)N[C@H]2CC[C@@H](S(C)(=O)=O)CC2)n1C` [Example 106, 2-ethyl-N-(4-fluoro-3-methylphenyl)-1,4-dimethyl-5-(2-(((1s,4s)-4-(methylsulfonyl)cyclohexyl)amino)-2-oxoacetyl)-1H-pyrrole-3-carboxamide], in series [1], the CC50 at 7 days is > 30 µM. Moreover, the EC50 in the series with HBV was < 50 nM.

Turning to `CCc1c(C(=O)Nc2ccc(F)c(C)c2)c(C)c(C(=O)C(=O)N[C@]2(C)CC[C@H](O)CC2)n1C` [Example 107, 2-ethyl-N-(4-fluoro-3-methylphenyl)-5-(2-(((1s,4s)-4-hydroxy-1-methylcyclohexyl)amino)-2-oxoacetyl)-1,4-dimethyl-1H-pyrrole-3-carboxamide], the CC50 at 7 days in series [1] is > 30 µM. For the same compound, the EC50 in the series on HBV was < 50 nM.

`CCc1c(C(=O)Nc2ccc(F)c(C)c2)c(C)c(C(=O)C(=O)N[C@H]2CC[C@@H](O)CC2)n1C` [Example 108, 2-ethyl-N-(4-fluoro-3-methylphenyl)-5-(2-(((1s,4s)-4-hydroxycyclohexyl)amino)-2-oxoacetyl)-1,4-dimethyl-1H-pyrrole-3-carboxamide] returned a CC50 at 7 days in series [1] of 5 to 30 µM. Moreover, the EC50 with HBV was < 50 nM.

Take `Cc1cc(NC(=O)c2c(C)c(C(=O)C(=O)N[C@]3(C)C[C@H](O)C3)n(C)c2C(C)C)ccc1F` [Example 109, N-(4-fluoro-3-methylphenyl)-5-(2-(((1s,3s)-3-hydroxy-1-methylcyclobutyl)amino)-2-oxoacetyl)-2-isopropyl-1,4-dimethyl-1H-pyrrole-3-carboxamide]: the CC50 at 7 days in series [1] was > 30 µM. Further, the EC50 in the series with HBV was in the range of 50 to 499 nM.

Consider `Cc1cc(NC(=O)c2c(C)c(C(=O)C(=O)N[C@H]3CC[C@@H](S(C)(=O)=O)CC3)n(C)c2C(C)C)ccc1F` [Example 110, N-(4-fluoro-3-methylphenyl)-2-isopropyl-1,4-dimethyl-5-(2-(((1s,4s)-4-(methylsulfonyl)cyclohexyl)amino)-2-oxoacetyl)-1H-pyrrole-3-carboxamide], for which, in series [1], the CC50 at 7 days is > 30 µM. In addition, the EC50 in the series with HBV is 500 to 1000 nM.

Consider `Cc1cc(NC(=O)c2c(C)c(C(=O)C(=O)N[C@]3(C)CC[C@H](O)CC3)n(C)c2C(C)C)ccc1F` [Example 111, N-(4-fluoro-3-methylphenyl)-5-(2-(((1s,4s)-4-hydroxy-1-methylcyclohexyl)amino)-2-oxoacetyl)-2-isopropyl-1,4-dimethyl-1H-pyrrole-3-carboxamide], for which the CC50 at 7 days in series [1] is > 30 µM. In addition, the EC50 in the series on HBV is < 50 nM.

In the case of `Cc1cc(NC(=O)c2c(C)c(C(=O)C(=O)N[C@H]3CC[C@@H](O)CC3)n(C)c2C(C)C)ccc1F` [Example 112, N-(4-fluoro-3-methylphenyl)-5-(2-(((1s,4s)-4-hydroxycyclohexyl)amino)-2-oxoacetyl)-2-isopropyl-1,4-dimethyl-1H-pyrrole-3-carboxamide], the 50% cytotoxic concentration (CC50) at 7 days in series [1] was > 30 µM. Further, in the series with HBV, the EC50 was in the range of 50 to 499 nM.

As to `Cc1cc(NC(=O)c2c(C)c(C(=O)C(=O)NCC(C)(C)O)n(C)c2C(C)C)ccc1F` [Example 113, N-(4-fluoro-3-methylphenyl)-5-(2-((2-hydroxy-2-methylpropyl)amino)-2-oxoacetyl)-2-isopropyl-1,4-dimethyl-1H-pyrrole-3-carboxamide], the CC50 at 7 days in series [1] is > 30 µM. Further, the EC50 with HBV was 50 to 499 nM.

Regarding `Cc1cc(NC(=O)c2c(C)c(C(=O)C(=O)N[C@]3(C)CC[C@H](O)CC3)n(C)c2C2CC2)ccc1F` [Example 114, 2-cyclopropyl-N-(4-fluoro-3-methylphenyl)-5-(2-(((1s,4s)-4-hydroxy-1-methylcyclohexyl)amino)-2-oxoacetyl)-1,4-dimethyl-1H-pyrrole-3-carboxamide], the CC50 at 7 days in series [1] was > 30 µM. The EC50 in the series with HBV is < 50 nM.

For `Cc1cc(NC(=O)c2c(C)c(C(=O)C(=O)N[C@H]3CC[C@@H](O)CC3)n(C)c2C2CC2)ccc1F` [Example 115, 2-cyclopropyl-N-(4-fluoro-3-methylphenyl)-5-(2-(((1s,4s)-4-hydroxycyclohexyl)amino)-2-oxoacetyl)-1,4-dimethyl-1H-pyrrole-3-carboxamide], the CC50 at 7 days in series [1] was > 30 µM. The EC50 in the series on HBV was < 50 nM.

Consider `Cc1cc(NC(=O)c2c(C)c(C(=O)C(=O)N[C@]3(C)C[C@H](O)C3)n(C)c2C2CCCCC2)ccc1F` [Example 116, 2-cyclohexyl-N-(4-fluoro-3-methylphenyl)-5-(2-(((1s,3s)-3-hydroxy-1-methylcyclobutyl)amino)-2-oxoacetyl)-1,4-dimethyl-1H-pyrrole-3-carboxamide], for which, in series [1], the CC50 at 7 days was > 30 µM. In the series on HBV, the EC50 is 500 to 1000 nM.

With `Cc1cc(NC(=O)c2c(C)c(C(=O)C(=O)N[C@H]3CC[C@@H](S(C)(=O)=O)CC3)n(C)c2C2CCCCC2)ccc1F` [Example 117, 2-cyclohexyl-N-(4-fluoro-3-methylphenyl)-1,4-dimethyl-5-(2-(((1s,4s)-4-(methylsulfonyl)cyclohexyl)amino)-2-oxoacetyl)-1H-pyrrole-3-carboxamide], the CC50 at 7 days in series [1] was > 30 µM. For the same compound, in the series on HBV, the EC50 is > 1000 nM.

Take `Cc1cc(NC(=O)c2c(C)c(C(=O)C(=O)N[C@]3(C)CC[C@H](O)CC3)n(C)c2C2CCCCC2)ccc1F` [Example 118, 2-cyclohexyl-N-(4-fluoro-3-methylphenyl)-5-(2-(((1s,4s)-4-hydroxy-1-methylcyclohexyl)amino)-2-oxoacetyl)-1,4-dimethyl-1H-pyrrole-3-carboxamide]: in series [1], the CC50 at 7 days was > 30 µM. Moreover, the EC50 with HBV lay in the range of 500 to 1000 nM.

In series [1], `Cc1cc(NC(=O)c2c(C)c(C(=O)C(=O)N[C@H]3CC[C@@H](O)CC3)n(C)c2C2CCCCC2)ccc1F` [Example 119, 2-cyclohexyl-N-(4-fluoro-3-methylphenyl)-5-(2-(((1s,4s)-4-hydroxycyclohexyl)amino)-2-oxoacetyl)-1,4-dimethyl-1H-pyrrole-3-carboxamide] had a CC50 at 7 days of 5 to 30 µM. For the same compound, the EC50 in the series with HBV lay within 500 to 1000 nM.

Regarding `Cc1cc(NC(=O)c2c(C)c(C(=O)C(=O)NCC(C)(C)O)n(C)c2C2CCCCC2)ccc1F` [Example 120, 2-cyclohexyl-N-(4-fluoro-3-methylphenyl)-5-(2-((2-hydroxy-2-methylpropyl)amino)-2-oxoacetyl)-1,4-dimethyl-1H-pyrrole-3-carboxamide], in series [1], the CC50 at 7 days was > 30 µM. Further, in the series on HBV, the EC50 was > 1000 nM.

Turning to `Cc1cc(NC(=O)c2c(C)c(C(=O)C(=O)N[C@H]3CC[C@@H](OCC(=O)NCCOCCOCCOCCOCCOCCOCCOCCNC(=O)CCCCC4SCC5NC(=O)NC54)CC3)n(C)c2C)ccc1F` (some centres unmarked) [Example 121, 5-(2-(((1s,4s)-4-((2,28-dioxo-32-(2-oxohexahydro-1H-thieno[3,4-d]imidazol-4-yl)-6,9,12,15,18,21,24-heptaoxa-3,27-diazadotriacontyl)oxy)cyclohexyl)amino)-2-oxoacetyl)-N-(4-fluoro-3-methylphenyl)-1,2,4-trimethyl-1H-pyrrole-3-carboxamide], the CC50 at 7 days in series [1] was > 30 µM. Also, the EC50 with HBV is > 1000 nM.

In turn, `Cc1cc(NC(=O)c2c(C)c(C(=O)C(=O)N[C@@H]3CC[C@H](O)C[C@@H]3F)n(C)c2C)ccc1F` [Example 122, N-(4-fluoro-3-methylphenyl)-5-(2-(((1R,2S,4S)-2-fluoro-4-hydroxycyclohexyl)amino)-2-oxoacetyl)-1,2,4-trimethyl-1H-pyrrole-3-carboxamide] had a CC50 at 7 days in series [1] of 5 to 30 µM. The EC50 in the series on HBV is < 50 nM.
